“And” between values parts separate entries of the source, which are not always exact repeats. Equal values may be shown once. “Also recorded” adds a separate entry of the source. Where a name gives a salt, the structure may show the parent alone. Read-outs that look alike come from different tables or passages of the source.
Tests used:
[1] = tested on: beagle dogs; experiment: Toxicology studies in beagle dogs (GI tolerance); settings: dogs
Procedure: (§1) Formal toxicology studies of intravenously administered isatoribine and orally administered isatoribine and val-isatoribine were conducted in beagle dogs.
(§2) In each case the compound was administered as a solution, by gavage or by intravenous infusion. Multiple parameters were assessed, as is customary in a toxicology study. In the studies providing higher potential exposure to isatoribine, the plasma concentration of isatoribine was assessed by a LC/MS method.

[2] = Systemic exposure to isatoribine after oral administration to beagle dogs; type: in vivo; settings: both 10 and 50 mg/kg
Procedure: The effect of a prodrug (val-isatoribine, 3) on the systemic exposure to isatoribine (1) after oral administration to beagle dogs was investigated. Isatoribine was prepared in sodium bicarbonate solution.
Four male and four female adult beagle dogs weighing between 15 to 27 kg and approximately 1-2 years old were used at the beginning of the study. The animals were divided into 2 groups of 2 males and 2 females each. The test material was administered by gavage on Days 1 and 8, allowing a 7-day washout period between administrations. Blood samples (2 mL) were collected from each animal at predose, 15, 30 minutes, 1, 2, 3, 4, 6, 8 and 10 hours into lithium heparin tubes after each dosing. The plasma was frozen at −70° C. until analysis. The plasma was analyzed for isatoribine by an HPLC-MS/MS assay.

[3] = tested on: interferon alpha (Mu-IFN-α); experiment: Murine interferon alpha in plasma of dosed mice; type: in vivo; settings: for Plasma Concentration of Interferon Alpha (Mu-IFN-α), Mean / Plasma Concentration of Interferon Alpha (Mu-IFN-α), Individual Value: single oral 73.0 mg/kg dose
From the text: The normal mouse provides a useful system for the assessment of the degree to which the inventions described herein provide material improvement in the oral delivery of 1 (isatoribine). Not only can one measure the plasma concentrations of isatoribine arising from oral administration of the said prodrug(s) but also the extensive immunological research conducted in the mouse has provided reagents suitable for measuring the levels of interferon alpha, a cytokine of interest reflecting one of the desired biologic activities of isatoribine.
Table 1 records the results of an assay for murine interferon alpha in the plasma of mice that were dosed two times with isatoribine, formulated in bicarbonate, at a level of 50 mg/kg by the oral route.
Table 2 records the results of assays for murine interferon alpha in the plasma of mice that first were dosed with bicarbonate and then four hours later were dosed orally with isatoribine, formulated in bicarbonate, at a level of 50 mg/kg. Interferon was reported in the plasma from four mice, including two that had received the bicarbonate vehicle dose.
Table 3 records the results of assays for murine interferon alpha in the plasma of mice that were dosed orally with val-isatoribine, dissolved in bicarbonate, at a dose that is equivalent to 50/mg/kg of isatoribine on a molar basis. […] Interferon was detected in all mice assayed at a given time point, indicating the reliability of the effect following val-isatoribine administration.
In other experiments, plasma levels of isatoribine and interferon alpha were measured in mice that were dosed with isatoribine by the intravenous route, and these levels were compared to the levels of isatoribine and interferon alpha arising after oral administration of val-isatoribine. […] Thus, oral val-isatoribine provides levels of isatoribine and interferon that are approximately 50% of those observed after intravenous administration of isatoribine itself.

[4] = tested on: beagle dogs; settings: dog, in vivo, iv, 12.5 mg/kg
Procedure: as §1, §2

[5] = Toxicology studies in beagle dogs (GI tolerance); settings: beagle, dog, iv; for AUC(0-t): plasma
Procedure: as §1, §2

[6] = in vivo; settings: beagle, dog, iv, 12.5 mg/kg
Procedure: as §1, §2

[7] = Recovery of 1 in urine after intravenous administration; type: in vivo; settings: read-out: recovery of administered dose in the urine as intact 1
Procedure: Reference values for compound I were obtained by similar procedures after either oral or intravenous dosing. […] For this reason, in some experiments the amount of 1 in urine collected over a period of 24 hours after dosing was used to assess compounds.

[8] = tested on: beagle dogs; settings: cited from earlier work
[9] = Oral Val-Isatoribine, isatoribine equivalent applied dose 8.1 mg/kg
[10] = Oral Val-Isatoribine, isatoribine equivalent applied dose 16 mg/kg
[11] = Oral Val-Isatoribine, isatoribine equivalent applied dose 32 mg/kg
[12] = Oral Val-Isatoribine, isatoribine equivalent applied dose 64 mg/kg
[13] = oral dosing, studies of Tables 1-3
[14] = IV Isatoribine, applied dose 25 mg/kg
[15] = dogs, Oral Isatoribine, applied dose 2.5 mg/kg

CC(C)[C@H](N)C(=O)OC[C@H]1O[C@@H](n2c(=O)sc3c(O)nc(N)nc32)[C@H](O)[C@@H]1O [Compound 3, 5-Amino-3-(5′-O-L-valinyl-β-D-ribofuranosyl)thiazolo[4,5-d]pyrimidine-2,7-dione Dihydrochloride]
GI lesions ([1]; oral): No GI lesions were found
Emesis or loose stool [1, 9]: Neg.
GI lesions or irritation [1, 9]: Neg.
Emesis or loose stool [1, 10]: Neg.
GI lesions or irritation [1, 10]: Neg.
Emesis or loose stool [1, 11]: Neg.
GI lesions or irritation [1, 11]: Neg.
Emesis or loose stool [1, 12]: Neg.
GI lesions or irritation [1, 12]: Neg.
GI lesions or irritation ([1]; Oral Val-Isatoribine, isatoribine equivalent applied dose 130 mg/kg): Neg.
GI lesions or irritation ([1]; Oral Val-Isatoribine, isatoribine equivalent applied dose 260 mg/kg): Neg.
GI lesions or irritation ([1]; Oral Val-Isatoribine, isatoribine equivalent applied dose 390 mg/kg): Neg.
maximum concentrations of isatoribine compared to isatoribine itself [2]: at least doubled
increase of magnitude of average and peak interferon response versus isatoribine ([3]; mice, oral): twofold
level of interferon relative to intravenous isatoribine ([3]; mice, oral, 50 mg/kg isatoribine molar equivalent, vs intravenous isatoribine 25 mg/kg, FIG. 1): approximately 50%
interferon in plasma ([3]; mice, oral, equivalent to 50 mg/kg isatoribine): readily measurable at 1.0 hour, 1.5 hours, and 2.0 hours after dosing
Plasma Concentration of Interferon Alpha (Mu-IFN-α), Mean ([3]; mice, 0.00 h): 0.00 pg/mL
Plasma Concentration of Interferon Alpha (Mu-IFN-α), Individual Value ([3]; mice, 0.00 h, listed as Val-Isatoribine, Dihydrochloride, 73 mg/kg): BQL (Below the Quantifiable Limit < 12.5 pg/mL); also recorded: BQL^125 pg/mL; also recorded: BQL^25 pg/mL
Plasma Concentration of Interferon Alpha (Mu-IFN-α), Individual Value ([3]; mice, 0.25 h): BQL (Below the Quantifiable Limit < 12.5 pg/mL)
Plasma Concentration of Interferon Alpha (Mu-IFN-α), Mean ([3]; mice, 0.25 h): 0.00 pg/mL
Plasma Concentration of Interferon Alpha (Mu-IFN-α), Mean ([3]; mice, 0.50 h): 0.00 pg/mL
Plasma Concentration of Interferon Alpha (Mu-IFN-α), Individual Value ([3]; mice, 0.50 h, listed as Val-Isatoribine, Dihydrochloride, 73 mg/kg): BQL^25 pg/mL; also recorded: BQL (Below the Quantifiable Limit < 12.5 pg/mL)
Plasma Concentration of Interferon Alpha (Mu-IFN-α), Mean ([3]; mice, 0.75 h): 0.00 pg/mL
Plasma Concentration of Interferon Alpha (Mu-IFN-α), Individual Value ([3]; mice, 0.75 h, listed as Val-Isatoribine, Dihydrochloride, 73 mg/kg): BQL (Below the Quantifiable Limit < 12.5 pg/mL); also recorded: BQL^25 pg/mL
Plasma Concentration of Interferon Alpha (Mu-IFN-α), Mean ([3]; mice, 1.00 h): 129.1 pg/mL
Plasma Concentration of Interferon Alpha (Mu-IFN-α), Individual Value ([3]; mice, 1.00 h, listed as Val-Isatoribine, Dihydrochloride, 73 mg/kg): 173.2 pg/mL and 125.1 pg/mL and 89.0 pg/mL
Plasma Concentration of Interferon Alpha (Mu-IFN-α), Mean ([3]; mice, 1.50 h): 214.5 pg/mL
Plasma Concentration of Interferon Alpha (Mu-IFN-α), Individual Value ([3]; mice, 1.50 h, listed as Val-Isatoribine, Dihydrochloride, 73 mg/kg): 202.9 pg/mL and 145.9 pg/mL and 294.8 pg/mL
Plasma Concentration of Interferon Alpha (Mu-IFN-α), Mean ([3]; mice, 2.00 h): 108.5 pg/mL
Plasma Concentration of Interferon Alpha (Mu-IFN-α), Individual Value ([3]; mice, 2.00 h, listed as Val-Isatoribine, Dihydrochloride, 73 mg/kg): 49.2 pg/mL and 137.9 pg/mL and 138.3 pg/mL
Plasma Concentration of Interferon Alpha (Mu-IFN-α), Individual Value ([3]; mice, 3.00 h): BQL^25 pg/mL
Plasma Concentration of Interferon Alpha (Mu-IFN-α), Mean ([3]; mice, 3.00 h): 0.00 pg/mL
Plasma Concentration of Interferon Alpha (Mu-IFN-α), Mean ([3]; mice, 4.00 h): 9.20 pg/mL
Plasma Concentration of Interferon Alpha (Mu-IFN-α), Individual Value ([3]; mice, 4.00 h, listed as Val-Isatoribine, Dihydrochloride, 73 mg/kg): BQL^25 pg/mL and 27.6 pg/mL and BQL (Below the Quantifiable Limit < 12.5 pg/mL)
Plasma Concentration of Interferon Alpha (Mu-IFN-α), Mean ([3]; mice, 5.00 h): 0.00 pg/mL
Plasma Concentration of Interferon Alpha (Mu-IFN-α), Individual Value ([3]; mice, 5.00 h, listed as Val-Isatoribine, Dihydrochloride, 73 mg/kg): BQL (Below the Quantifiable Limit < 12.5 pg/mL); also recorded: BQL^25 pg/mL
mice with interferon detected in plasma [3, 13]: 10 of the 30
proportion of mice exhibiting an interferon response [3, 13]: 30%

Nc1nc2c(sc(=O)n2[C@@H]2O[C@H](CO)[C@@H](O)[C@H]2O)c(=O)[nH]1 [Compound 1, 5-amino-3-β-D-ribofuranosylthiazolo[4,5-d]pyrimidine-2,7-dione, reference compound]
Emesis or loose stool [4]: Neg.
GI lesions or irritation [4]: Neg.
GI lesions ([1]; intravenous, necropsy or histopathologic evaluation): No lesions were seen in the GI tract
Emesis or loose stool [1, 14]: Neg.
GI lesions or irritation [1, 14]: Neg.
GI lesions or irritation ([1]; IV Isatoribine, applied dose 50 mg/kg): Neg.
GI lesions or irritation ([1]; IV Isatoribine, applied dose 100 mg/kg): Neg.
NOAEL ([5]; in vivo): 12.5 mg/kg
AUC(0-t) ([5]; 25 mg/kg): 42800 ng·h/mL
AUC(0-t) ([5]; 50 mg/kg): 87800 ng·h/mL
AUC(0-t) ([5]; 100 mg/kg): 209000 ng·h/mL
AUC(0-t) [6]: 19500 ng·h/mL
dose excreted [7]: > 75%
limiting toxicity ([8]; dog, in vivo, po): gastrointestinal lesions
Emesis or loose stool [8, 15]: Neg.
GI lesions or irritation [8, 15]: Neg.
GI lesions or irritation ([8]; dogs, Oral Isatoribine, applied dose 5 mg/kg): Neg.
dogs with multiple, scattered red lesions on the intestinal mucosa ([8]; oral, 10 mg/kg, gross histopathologic evaluation): four of eight dogs
interferon in plasma ([3]; mice, two oral 50 mg/kg doses, interval four hours): no interferon was measurable
mice with interferon detected in plasma [3, 13]: 4 of the 114

Reference: patent US20080070852A1, “3-Beta-D-Ribofuranosylthiazolo[ 4,5-D] Pyridimine Nucleosides and Uses Thereof” (priority 2004, published 2008)
